Test results taken from ChEMBL document CHEMBL3611997, “4-Fluoro-3',4',5'-trimethoxychalcone as a new anti-invasive agent. From discovery to initial validation in an in vivo metastasis model” (Eur J Med Chem, 2015).
In brackets after ≈: the same amount, converted by molar mass. Activity calls are given as the source filed them. The rule behind the calls is not given here.

How the values were obtained:
[1] = Aqueous solubility of the compound in simulated gastric fluid at 200 umol/L; type: physicochemical
[2] = Cytotoxicity against human MCF7/6 cells assessed as reduction of cellular protein content at 0.01 to 100 umol/L after 6 days by SRB assay; type: cell-based; settings: mcf7/6, 144 h
[3] = Permeability across basolateral to apical side of human Caco2 cells assessed as compound recovery at 10 umol/L at pH 7.4; type: ADME, cell-based; settings: Caco-2, pH 7.4, read-out: Drug recovery
[4] = Intrinsic clearance in human liver S9 fraction at 0.1 umol/L; type: ADME, subcellular; settings: read-out: CLH
[5] = test system: SK-OV-3; assay: Antiinvasive activity in human in SKOV3 cells assessed as reduction of amount of cells present on filter at 1 umol/L after 24 hrs by matrigel invasion assay (reference value: 100%); type: functional; parameters: scale not given: the % may be the effect or the level left
[6] = test system: Mus musculus; assay: Toxicity in Swiss nu/nu mouse assessed as hematological anomalies by measuring ALT level at 16 mg/kg, ip administered three times a week for two-week period measured on day 15 (reference value: 29.6 +/- 5.6 IU/L); type: organism-based; settings: in vivo
[7] = test system: Mus musculus; assay: Toxicity in Swiss nu/nu mouse assessed as histological anomalies in liver at 1.6 to 160 mg/kg, ip administered three times a week for two-week period measured on day 15; type: organism-based; settings: in vivo
[8] = test system: SK-OV-3; assay: Antiinvasive activity in human in SKOV3 cells assessed as reduction of amount of cells present on filter at 0.1 umol/L after 24 hrs by matrigel invasion assay (reference value: 100%); type: functional; parameters: scale not given: the % may be the effect or the level left
[9] = test system: Mus musculus; assay: Toxicity in human MCF7/6 cells xenografted Swiss nu/nu mouse assessed as macroscopic metastases at 160 mg/kg, ip administered thrice a week measured after 3 months; type: organism-based; settings: in vivo, 2191.5 h
[10] = Antimetastasis activity against human MCF7/6 cells xenografted in Swiss nu/nu mouse assessed as increase of survival time at 160 mg/kg, ip administered thrice a week relative to control; type: functional
[11] = Antiinvasive activity in human in BLM cells assessed as reduction of amount of cells present on filter at 10 umol/L after 24 hrs by matrigel invasion assay (reference value: 100%); type: functional; parameters: scale not given: the % may be the effect or the level left
[12] = test system: SK-OV-3; assay: Antiinvasive activity in human in SKOV3 cells assessed as reduction of amount of cells present on filter at 10 umol/L after 24 hrs by matrigel invasion assay (reference value: 100%); type: functional; parameters: scale not given: the % may be the effect or the level left
[13] = Antiinvasive activity in human MCF7/6 cells assessed as Cmin for progressive occupation of chicken precultured heart tissue fragments after 8 days by chick heart invasion assay; type: functional
[14] = Intrinsic clearance in Sprague-Dawley rat liver microsomes at 0.1 umol/L; type: ADME; settings: read-out: CLH
[15] = test system: MCF7/6; assay: Antiinvasive activity in human MCF7/6 cells assessed as Cmin for progressive occupation of chicken precultured heart tissue fragments at 0.01 to 10 umol/L after 8 days by chick heart invasion assay; type: functional, cell-based
[16] = Cytotoxicity against human MCF7/6 cells assessed as reduction of mitochondrial activity at 10 to 100 umol/L after 8 days by MTT assay; type: cell-based; settings: mcf7/6, 192 h
[17] = test system: Mus musculus; assay: Toxicity in Swiss nu/nu mouse assessed as histological anomalies in spleen at 1.6 to 160 mg/kg, ip administered three times a week for two-week period measured on day 15; type: organism-based; settings: in vivo
[18] = Half life of the compound in simulated intestinal fluid at 1 umol/L; type: ADME
[19] = Permeability across apical to basolateral side of human Caco2 cells at 10 umol/L at pH 7.4; type: ADME, cell-based; settings: Caco-2, pH 7.4, read-out: permeability
[20] = test system: Mus musculus; assay: Toxicity in Swiss nu/nu mouse assessed as hematological anomalies by measuring ALT level at 160 mg/kg, ip administered three times a week for two-week period measured on day 15 (reference value: 29.6 +/- 5.6 IU/L); type: organism-based; settings: in vivo
[21] = Permeability across apical to basolateral side of human Caco2 cells assessed as compound recovery at 10 umol/L at pH 7.4; type: ADME, cell-based; settings: Caco-2, pH 7.4, read-out: Drug recovery
[22] = Toxicity in human HepG2 cells assessed as cell viability at 1 umol/L; type: cell-based; settings: read-out: Activity
[23] = Intrinsic clearance in Sprague-Dawley rat liver S9 fraction at 0.1 umol/L; type: ADME, subcellular; settings: read-out: CLH
[24] = Antiinvasive activity in human in BLM cells assessed as reduction of amount of cells present on filter at 0.1 umol/L after 24 hrs by matrigel invasion assay (reference value: 100%); type: functional; parameters: scale not given: the % may be the effect or the level left
[25] = test system: Mus musculus; assay: Toxicity in Swiss nu/nu mouse assessed as hematological anomalies by measuring WBC count at 160 mg/kg, ip administered three times a week for two-week period measured on day 15 (reference value: 2420 +/- 782 /microL); type: organism-based; settings: in vivo
[26] = test system: Mus musculus; assay: Toxicity in Swiss nu/nu mouse assessed as histological anomalies in kidney at 1.6 to 160 mg/kg, ip administered three times a week for two-week period measured on day 15; type: organism-based; settings: in vivo
[27] = test system: MDA-MB-231; assay: Cytotoxicity against human MDA-MB-231 cells expressing GFP-Luc assessed as reduction of cellular protein content at 0.01 to 100 umol/L after 6 days by SRB assay; type: cell-based; settings: mda-mb-231, 144 h
[28] = Toxicity in human HepG2 cells assessed as cell viability at 10 umol/L; type: cell-based; settings: read-out: Activity
[29] = Half life of the compound in simulated gastric fluid at 1 umol/L; type: ADME
[30] = biological target: T1, hERG (Homo sapiens, UniProt Q12809); assay: Inhibition of human ERG assessed as reduction of tail current at 10 umol/L
T1 sequence (Q12809 whole entry): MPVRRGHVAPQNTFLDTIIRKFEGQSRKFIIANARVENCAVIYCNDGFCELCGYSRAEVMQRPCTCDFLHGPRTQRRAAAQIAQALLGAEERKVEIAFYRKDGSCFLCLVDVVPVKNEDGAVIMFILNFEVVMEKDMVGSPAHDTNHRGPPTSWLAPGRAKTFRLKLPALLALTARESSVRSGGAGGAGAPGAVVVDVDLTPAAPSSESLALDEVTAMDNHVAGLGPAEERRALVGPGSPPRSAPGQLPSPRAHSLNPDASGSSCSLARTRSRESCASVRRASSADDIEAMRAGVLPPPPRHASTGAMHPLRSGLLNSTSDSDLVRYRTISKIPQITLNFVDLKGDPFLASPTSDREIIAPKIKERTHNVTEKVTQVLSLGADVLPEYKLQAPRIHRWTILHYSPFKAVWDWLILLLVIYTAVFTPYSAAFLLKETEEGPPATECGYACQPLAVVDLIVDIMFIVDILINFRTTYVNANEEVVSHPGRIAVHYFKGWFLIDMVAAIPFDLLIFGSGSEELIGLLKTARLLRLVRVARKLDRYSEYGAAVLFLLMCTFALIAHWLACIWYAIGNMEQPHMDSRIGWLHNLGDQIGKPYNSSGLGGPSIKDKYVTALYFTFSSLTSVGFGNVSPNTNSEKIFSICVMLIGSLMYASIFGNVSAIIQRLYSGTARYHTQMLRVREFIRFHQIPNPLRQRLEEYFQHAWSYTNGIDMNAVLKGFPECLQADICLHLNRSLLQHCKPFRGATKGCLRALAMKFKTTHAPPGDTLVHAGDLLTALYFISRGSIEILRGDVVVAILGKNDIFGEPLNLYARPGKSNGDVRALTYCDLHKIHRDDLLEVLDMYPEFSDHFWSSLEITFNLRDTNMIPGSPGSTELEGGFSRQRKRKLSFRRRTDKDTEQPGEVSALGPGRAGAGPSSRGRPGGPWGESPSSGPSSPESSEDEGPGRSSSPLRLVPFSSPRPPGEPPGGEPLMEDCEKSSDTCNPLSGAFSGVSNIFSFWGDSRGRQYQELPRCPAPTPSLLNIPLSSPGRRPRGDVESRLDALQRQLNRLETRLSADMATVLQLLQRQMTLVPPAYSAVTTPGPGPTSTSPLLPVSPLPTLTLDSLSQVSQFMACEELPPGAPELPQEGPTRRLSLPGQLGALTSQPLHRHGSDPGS

[31] = Half life in human blood at 1 umol/L; type: ADME, tissue-based
[32] = test system: Mus musculus; assay: Toxicity in Swiss nu/nu mouse assessed as hematological anomalies by measuring AST level at 1.6 mg/kg, ip administered three times a week for two-week period measured on day 15 (reference value: 254.2 +/- 144.6 IU/L); type: organism-based; settings: in vivo
[33] = Cytotoxicity against human BLM cells assessed as reduction of mitochondrial activity at 0.01 to 1 umol/L after 24 hrs by MTT assay; type: cell-based
[34] = test system: Mus musculus; assay: Toxicity in Swiss nu/nu mouse assessed as hematological anomalies by measuring WBC count at 16 mg/kg, ip administered three times a week for two-week period measured on day 15 (reference value: 2420 +/- 782 /microL); type: organism-based; settings: in vivo
[35] = biological target: T1, hERG; assay: Inhibition of human ERG assessed as reduction of tail current at 0.1 umol/L
[36] = Aqueous solubility of the compound in PBS at pH 7.4 at 200 umol/L; type: physicochemical
[37] = Aqueous solubility of the compound in simulated intestinal fluid at 200 umol/L; type: physicochemical
[38] = biological target: CYP3A4 (Homo sapiens, UniProt P08684); assay: Inhibition of CYP3A4 (unknown origin) at 10 umol/L; type: ADME
CYP3A4, sequence (P08684 whole entry): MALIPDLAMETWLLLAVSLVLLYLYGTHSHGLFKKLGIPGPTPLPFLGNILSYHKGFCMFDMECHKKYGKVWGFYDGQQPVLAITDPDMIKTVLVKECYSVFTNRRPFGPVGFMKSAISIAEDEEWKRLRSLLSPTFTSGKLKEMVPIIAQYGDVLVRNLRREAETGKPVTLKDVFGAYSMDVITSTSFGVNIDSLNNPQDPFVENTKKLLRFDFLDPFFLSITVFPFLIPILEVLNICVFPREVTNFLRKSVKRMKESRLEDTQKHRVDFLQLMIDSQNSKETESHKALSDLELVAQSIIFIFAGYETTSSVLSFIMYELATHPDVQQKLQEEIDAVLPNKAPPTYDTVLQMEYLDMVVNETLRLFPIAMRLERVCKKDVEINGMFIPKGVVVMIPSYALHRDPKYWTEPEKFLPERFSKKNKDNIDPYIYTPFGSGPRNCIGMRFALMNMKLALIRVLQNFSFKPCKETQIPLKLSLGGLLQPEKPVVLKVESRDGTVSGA

[39] = test system: Mus musculus; assay: Toxicity in Swiss nu/nu mouse assessed as hematological anomalies by measuring creatinine level at 1.6 mg/kg, ip administered three times a week for two-week period measured on day 15 (reference value: 0.29 +/- 0.02 mg/dL); type: organism-based; settings: in vivo
[40] = test system: MCF10; assay: Cytotoxicity against human MCF10 cells assessed as reduction of cellular protein content at 0.01 to 100 umol/L after 6 days by SRB assay; type: cell-based; settings: mcf10, 144 h

COc1cc(C(=O)/C=C/c2ccc(F)cc2)cc(OC)c1OC
solubility at 200 µM [1]: 9.1 µM (≈ 2.88 µg/mL) | Activity [2]: Non-toxic | recovery at 10 µM [3]: 66% | microsomal CLint at 0.1 µM [4]: 57.3 µL/min/mg | Activity [5]: 18% | Activity [6]: 28.1 IU/L | Activity [7]: Non-toxic | Activity [8]: 85% | Activity [9]: Non-toxic | Survival [10]: 34 days | Activity [11]: 7% | Activity [12]: 12% | Cmin [13]: 0.01 µmol/L | microsomal CLint at 0.1 µM [14]: 339 µL/min/mg | Activity [15]: Active | Activity [16]: Toxic | Activity [17]: Non-toxic | half-life at 1 µM [18]: > 240 min | Papp A→B at 10 µM [19]: 10.4 ×10⁻⁶ cm/s | Activity [20]: 33.2 IU/L | recovery at 10 µM [21]: 17% | viability at 1 µM [22]: 93.8% | microsomal CLint at 0.1 µM [23]: 116 µL/min/mg | Activity [24]: 20% | Activity [25]: 3180 µL⁻¹ | Activity [26]: Non-toxic | Activity [27]: Non-toxic | viability at 10 µM [28]: 44.3% | half-life at 1 µM [29]: > 60 min | inhibition at 10 µM [30]: 28.3% | half-life at 1 µM [31]: 10 min | Activity [32]: 135.5 IU/L | Activity [33]: Non-toxic | Activity [34]: 5960 µL⁻¹ | inhibition at 0.1 µM [35]: 3.7% | solubility at 200 µM [36]: 2.4 µM (≈ 0.759 µg/mL) | solubility at 200 µM [37]: 7.9 µM (≈ 2.5 µg/mL) | inhibition at 10 µM [38]: 27.2% | Activity [39]: 0.22 mg/dL | Activity [40]: Non-toxic
